{
  "source": "paper PMC5944028",
  "about": "“Nonclinical and clinical pharmacological characterization of the potent and selective cathepsin K inhibitor MIV-711” (Journal of Translational Medicine, 2018)",
  "key": {"[1]": {"assay": "Monkey plasma pharmacokinetics, single oral dose", "format": "in vivo, cynomolgus monkeys (Macaca fascicularis)", "settings": "for AUC0–t / AUCinf / Cmax / Cmax/dose / t½: geometric mean (CV%); for tmax: median (min–max)", "experimental": "Eight cynomolgus monkeys (Macaca fascicularis) were used for measuring plasma levels of MIV-711 and CTX-I after a single dose. The animals were healthy young males, approximately 2–4 years old and weighing 3–4 kg. Experiments were performed at Covance Ltd (Harrogate, UK). The monkeys were used over an extended period of time (up to a year) and several cathepsin K inhibitors were evaluated during this time. At least 1 week was allowed for washout in between experiments. This was not believed to affect the results with MIV-711, and vehicle controls were run on a regular basis when appropriate. Each animal received at least one dose of MIV-711 and one dose of vehicle with at least 1 week of washout in between treatments.\nIn single dose experiments, animals were dosed with vehicle or MIV-711 (3–30 µmol/kg) via oral gavage at a dose volume of 4 mL/kg between 7:30 and 9:00 a.m. Blood samples were collected at baseline, 30 min, 1, 2, 4, 8, 12, 24 and 48 h after dose from the femoral vein and transferred into lithium heparin anticoagulant tubes. The samples were centrifuged and the two aliquots of the resultant plasma were frozen at − 70 °C. All samples were processed and stored within 30 min of collection. The aliquots were used to determine the MIV-711 concentration and CTX-I levels, respectively. [drawing 1]\nThe quantification of MIV-711 in monkey plasma was performed by taking 10–50 µL of plasma and mixing with 3 volumes of acetonitrile (10 s, Vibrofix). The sample was centrifuged (10 min, 20,000×g, 7 °C) and 5 µL of the supernatant was injected onto the liquid chromatography with tandem mass spectrometric detection (LC–MS/MS) system. The lowest concentration of the standard curves and the lower limit of quantification (LLOQ) was 1 nmol/L of MIV-711. The human plasma samples were prepared by protein precipitation for sample extraction followed by LC–MS/MS. The lowest concentration of the standard curves and the LLOQ was 4 nmol/L of MIV-711 using 25 µL of plasma."}, "[2]": {"molecular_target": "T1, human cathepsin F (Homo sapiens, UniProt Q9UBX1)", "T1 construct": "made in house", "T1 sequence (Q9UBX1 271-484)": "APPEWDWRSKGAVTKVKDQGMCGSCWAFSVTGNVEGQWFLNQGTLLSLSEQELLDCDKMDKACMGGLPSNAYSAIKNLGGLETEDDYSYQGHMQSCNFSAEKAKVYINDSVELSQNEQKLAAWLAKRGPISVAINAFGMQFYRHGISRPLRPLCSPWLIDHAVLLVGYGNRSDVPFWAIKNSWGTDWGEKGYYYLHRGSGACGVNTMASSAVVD", "assay": "Enzyme assay, human cathepsin F", "format": "biochemical", "description": "Recombinant cathepsin K enzymes from all species were expressed in E. coli, purified and activated. Human cathepsin F and cathepsin S were expressed in Baculovirus, purified and activated. Purified human cathepsins B and H (Athens Research Technology), cathepsin L (Calbiochem), and cathepsin V (R & D Systems) were purchased.\nH-D-Ala_Leu-Lys-AMC was used as the substrate in assays of cathepsin K from non-rodent species (human, dog, rabbit and guinea pig), and Z-Leu-Arg-AMC was used as the substrate in assays of cathepsin K from rodent species (mouse and rat). […]\nAssays were carried out in white polystyrene 96-well plates in a final volume of 100 µL. […] Plates were read in a Fluoroskan Ascent (Thermo Labsystems, Helsinki, Finland) in kinetic mode, with excitation and emission filters of 390 and 460 nm, respectively. Rates were determined by linear regression of the fluorescence/time data in Excel. Rates were fitted by non-linear regression to either the competitive inhibition equation, with the substrate concentration fixed at the value in the assay and the KM fixed to the value previously determined, or the IC50 equation using GraphPad Prism (GraphPad, version 6, San Diego, USA) to obtain Ki or IC50 values, respectively."}, "[3]": {"test_system": "differentiated human osteoclasts", "assay": "Osteoclast-mediated bone resorption, human bone fragments (CTX-I release)", "format": "cell-based", "experimental": "The effect of MIV-711 on osteoclast-mediated bone resorption was evaluated using a complete kit from Cambrex Bio Science (Walkersville, MD, USA). Briefly, primary osteoclasts were generated from osteoclast precursors by incubation with RANK ligand and M-CSF in 96-well plates coated with human bone fragments, according to the instructions from the provider. After differentiation (minimum of 5 days), osteoclasts were exposed to different fixed concentrations of MIV-711 for 24 h. The resorption activity of the cultures was determined by quantifying CTX-I in the culture supernatants using a commercially available enzyme-linked immunosorbent assay (CrossLaps®, Nordic Bioscience Diagnostics A/S, Herlev, Denmark). Controls exposed to medium without inhibitor were set to 100%. CTX-I levels from MIV-711-treated cells were normalized and expressed as % of control. Curves were generated plotting the concentration of MIV-711 versus % of control. The curves were fitted to the Hill (four parameter) equation to generate an IC50 value using GraphPad Prism software. The IC50 value was defined as the concentration of MIV-711 that reduced CTX-I levels to 50% of control."}},
  "data": [
    {"compound": "C#C[C@@H]1CN(C(=O)[C@H](CC(C)C)NC(=O)c2ccc(-c3nc(N4CCN(C)CC4)sc3F)cc2)[C@@H]2C(=O)CO[C@H]12", "note": "[MIV-711]", "values": [
      {"measurement": "AUC0–t", "setting": "[1]; 3 µmol/kg p.o. single dose", "value": "0.400 (60) µmol/L × h"},
      {"measurement": "AUCinf", "setting": "[1]; 3 µmol/kg p.o. single dose", "value": "0.409 (62) µmol/L × h"},
      {"measurement": "Cmax", "setting": "[1]; 3 µmol/kg p.o. single dose", "value": 102, "unit": "nM"},
      {"measurement": "Cmax/dose", "setting": "[1]; 3 µmol/kg p.o. single dose", "value": "0.034 (65)"},
      {"measurement": "t½", "setting": "[1]; 3 µmol/kg p.o. single dose", "value": "2.1 (16) h"},
      {"measurement": "tmax", "setting": "[1]; 3 µmol/kg p.o. single dose", "value": "2.0 (2.0–2.0) h"},
      {"measurement": "AUC0–t", "setting": "[1]; 10 µmol/kg p.o. single dose", "value": "0.881 (52) µmol/L × h"},
      {"measurement": "AUCinf", "setting": "[1]; 10 µmol/kg p.o. single dose", "value": "0.932 (46) µmol/L × h"},
      {"measurement": "Cmax", "setting": "[1]; 10 µmol/kg p.o. single dose", "value": 164, "unit": "nM"},
      {"measurement": "Cmax/dose", "setting": "[1]; 10 µmol/kg p.o. single dose", "value": "0.016 (41)"},
      {"measurement": "t½", "setting": "[1]; 10 µmol/kg p.o. single dose", "value": "3.1 (52) h"},
      {"measurement": "tmax", "setting": "[1]; 10 µmol/kg p.o. single dose", "value": "2.0 (0.50–4.0) h"},
      {"measurement": "AUC0–t", "setting": "[1]; 30 µmol/kg p.o. single dose", "value": "6.21 (62) µmol/L × h"},
      {"measurement": "AUCinf", "setting": "[1]; 30 µmol/kg p.o. single dose", "value": "6.28 (62) µmol/L × h"},
      {"measurement": "Cmax", "setting": "[1]; 30 µmol/kg p.o. single dose", "value": 923, "unit": "nM"},
      {"measurement": "Cmax/dose", "setting": "[1]; 30 µmol/kg p.o. single dose", "value": "0.031 (56)"},
      {"measurement": "t½", "setting": "[1]; 30 µmol/kg p.o. single dose", "value": "3.4 (30) h"},
      {"measurement": "tmax", "setting": "[1]; 30 µmol/kg p.o. single dose", "value": "2.0 (1.0–4.0) h"},
      {"measurement": "Plasma concentration at 24 h post-dose", "setting": "[1]; highest dose group (30 µmol/kg p.o.)", "value": "approximately 10 nmol/L"},
      {"measurement": "Plasma concentration at 24 h post-dose", "setting": "[1]; lowest dose group (3 µmol/kg p.o.), below LLOQ", "value": "< 1", "unit": "nM"},
      {"measurement": "Ki", "setting": "[2]", "value": 2800, "unit": "nM"},
      {"measurement": "Concentration needed for effect on bone resorption in vitro relative to Ki", "setting": "[3]", "value": "around 50 fold"},
      {"measurement": "IC50", "setting": "[3]; human bone fragments, 24 h, CTX-I, geometric mean", "value": 43, "unit": "nM"}
    ]}
  ]
}
